In patent publication US10111435B2, “Herbicidal compositions containing N-(1,3,4-oxadiazol-2-yl)-aryl carboxylic acid amides” (BAYER CROPSCIENCE AKTIENGESELLSCHAFT, priority 2013, dated 2018):

What was measured:
Assay type in all cases: in vivo
Bromus sterilis (BROST) = experiment: greenhouse post-emergence herbicidal efficacy against BROST
Description: (§1) All trials whose results are shown were conducted in a greenhouse by the methodology specified below. The effect of the inventive herbicidal compositions was examined on the following harmful plants 14 and 21 days after application:
(§2) Echinochloa crus-galli (ECHCG), Eleusine indica (ELEIN), Setaria viridis (SETVI), Amaranthus retroflexus (AMARE), Chenopodium album (CHEAL), Kochia scoparia (KCHSC), Solanum nigrum (SOLNI), Avena fatua (AVEFA), Bromus sterilis (BROST), Lolium multiflorum (LOLMU), Phalaris minor (PHAMI), Poa annua (POAAN), Galium aparine (GALAP), Matricaria inodora (MATIN) and Polygonum convolvulus (POLCO).
(§3) The harmful plant seeds were sown in pots (diameter 8 cm) with sandy loam soil and germinated under optimal conditions. The inventive herbicidal compositions or the active ingredients alone were applied post-emergence to the planted pots with a spray volume of 300 L/ha. The trial was conducted in a greenhouse under optimum growth conditions. The herbicidal effects were assessed visually by comparison of untreated and treated plants. The percentages mean: 0%=no effects, 100%=the plants die off completely).
(§4) The abbreviations mean: • a.i.=active ingredient • E^C=expected value according to Colby (E^C=A+B−A×B/100) • Diff: =difference (%) of measured value from expected value (%) (measured value minus expected value)
(§5) Assessment: • measured value E is greater than E^C:->synergism (+ diff.) • measured value E equals E^C:->additive effect • measured value E is smaller than E^C:->antagonism(− diff.)

Galium aparine (GALAP) = experiment: greenhouse post-emergence herbicidal efficacy against GALAP
Description: as §1, §2, §3, §4, §5

[1] = system: Lolium multiflorum (LOLMU); experiment: greenhouse post-emergence herbicidal efficacy against LOLMU
Description: as §1, §2, §3, §4, §5

Avena fatua (AVEFA) = experiment: greenhouse post-emergence herbicidal efficacy against AVEFA
Description: as §1, §2, §3, §4, §5

[2] = system: Matricaria inodora (MATIN); experiment: greenhouse post-emergence herbicidal efficacy against MATIN
Description: as §1, §2, §3, §4, §5

Phalaris minor (PHAMI) = experiment: greenhouse post-emergence herbicidal efficacy against PHAMI
Description: as §1, §2, §3, §4, §5

Poa annua (POAAN) = experiment: greenhouse post-emergence herbicidal efficacy against POAAN
Description: as §1, §2, §3, §4, §5

[3] = system: Polygonum convolvulus (POLCO); experiment: greenhouse post-emergence herbicidal efficacy against POLCO
Description: as §1, §2, §3, §4, §5

[4] = 21 days after application, g of a.i./ha: A1-13 10, indaziflam 10
[5] = 14 days after application, g of a.i./ha: A1-13 2.5, indaziflam 10
[6] = 14 days after application, g of a.i./ha: A1-13 10, indaziflam 40
[7] = 21 days after application, g of a.i./ha: A1-13 2.5, indaziflam 40
[8] = 21 days after application, g of a.i./ha: A1-13 10, indaziflam 40
[9] = 14 days after application, g of a.i./ha: A1-60 2.5, isoproturon 400
[10] = 14 days after application, g of a.i./ha: A1-60 2.5, isoproturon 1600
[11] = 14 days after application, g of a.i./ha: A1-60 10, isoproturon 400
[12] = 14 days after application, g of a.i./ha: A1-60 10, isoproturon 1600
[13] = 21 days after application, g of a.i./ha: A1-60 10, isoproturon 400
[14] = 21 days after application, g of a.i./ha: A1-60 10, isoproturon 1600
[15] = 21 days after application, g of a.i./ha: A1-60 2.5, isoproturon 400
[16] = 14 days after application, 25 g of a.i./ha
[17] = 21 days after application, g of a.i./ha: A1-14 10, pyrasulfotole 100
[18] = 14 days after application, 100 g of a.i./ha
[19] = 21 days after application, g of a.i./ha: A1-14 2.5, pyrasulfotole 25
[20] = 21 days after application, g of a.i./ha: A1-14 2.5, pyrasulfotole 100
[21] = 21 days after application, g of a.i./ha: A1-14 10, pyrasulfotole 25
[22] = 21 days after application, g of a.i./ha: A1-7 10, saflufenacil 8
[23] = 14 days after application, g of a.i./ha: A1-7 2.5, saflufenacil 2
[24] = 14 days after application, g of a.i./ha: A1-7 2.5, saflufenacil 8

`Cc1ccc2c(c1)[C@H](Nc1nc(N)nc(C(C)F)n1)[C@@H](C)C2` (some centres unmarked) [indaziflam] was tested, and the Efficacy (Bromus sterilis (BROST); [4]) was 0%, the Efficacy (Galium aparine (GALAP); [5]) was 50% and the Efficacy (Galium aparine (GALAP); [6]) was 60%. The “Efficacy against GALAP” value (Galium aparine (GALAP); 21 days after application, dosage 40 g of a.i./ha) was 35%, the Efficacy [1, 4] was 0% and the Efficacy (Avena fatua (AVEFA); [7]) was 10%. For the same compound, the Efficacy (Avena fatua (AVEFA); [8]) was 10%, the Efficacy [2, 5] was 30% and the Efficacy ([2]; 14 days after application, g of a.i./ha: A1-13 10, indaziflam 10) was 30%. For the same compound, the Efficacy (Phalaris minor (PHAMI); 14 days after application, g of a.i./ha: A1-13 2.5, indaziflam 40) was 10%, the Efficacy (Phalaris minor (PHAMI); [6]) was 10% and the Efficacy (Phalaris minor (PHAMI); [7]) was 10%. For the same compound, the Efficacy (Phalaris minor (PHAMI); [8]) was 10% and the “Efficacy against POAAN” value (Poa annua (POAAN); 21 days after application, dosage 10 g of a.i./ha) was 0%.
For `CC(C)c1ccc(NC(=O)N(C)C)cc1` [isoproturon], the Efficacy (Bromus sterilis (BROST); [9]) was 0%, the Efficacy (Bromus sterilis (BROST); [10]) was 5% and the Efficacy (Bromus sterilis (BROST); [11]) was 0%. For the same compound, the Efficacy (Bromus sterilis (BROST); [12]) was 5%, the Efficacy (Bromus sterilis (BROST); [13]) was 0% and the Efficacy (Bromus sterilis (BROST); [14]) was 0%. It also gave an Efficacy (Galium aparine (GALAP); [9]) of 10%, an Efficacy (Galium aparine (GALAP); [10]) of 20% and an Efficacy (Galium aparine (GALAP); [11]) of 10%. The Efficacy (Galium aparine (GALAP); [12]) was 20%, the Efficacy (Galium aparine (GALAP); [15]) was 0% and the Efficacy (Galium aparine (GALAP); 21 days after application, g of a.i./ha: A1-60 2.5, isoproturon 1600) was 0%. It also gave an Efficacy (Galium aparine (GALAP); [13]) of 0%, an Efficacy (Galium aparine (GALAP); [14]) of 0% and an Efficacy [1, 9] of 0%. It also gave an Efficacy [1, 10] of 15%, an Efficacy [1, 11] of 0% and an Efficacy [1, 12] of 15%. It also gave an Efficacy [1, 13] of 0%, an Efficacy [1, 14] of 0% and an Efficacy (Avena fatua (AVEFA); [9]) of 0%. For the same compound, the Efficacy (Avena fatua (AVEFA); [11]) was 0%, the Efficacy (Avena fatua (AVEFA); [12]) was 35% and the Efficacy (Avena fatua (AVEFA); [15]) was 0%. The Efficacy (Avena fatua (AVEFA); [13]) was 0%, the Efficacy (Avena fatua (AVEFA); [14]) was 15% and the Efficacy [2, 15] was 90%. It also gave an Efficacy [2, 13] of 90%, an Efficacy (Phalaris minor (PHAMI); [9]) of 35% and an Efficacy (Phalaris minor (PHAMI); [11]) of 35%. For the same compound, the Efficacy (Phalaris minor (PHAMI); [12]) was 80%, the Efficacy (Phalaris minor (PHAMI); [15]) was 15% and the Efficacy (Phalaris minor (PHAMI); [13]) was 15%. It also gave an Efficacy (Poa annua (POAAN); [10]) of 80%, an Efficacy (Poa annua (POAAN); [11]) of 60% and an Efficacy (Poa annua (POAAN); [12]) of 80%. For the same compound, the Efficacy (Poa annua (POAAN); [13]) was 30%.
For `Cc1nn(C)c(O)c1C(=O)c1ccc(C(F)(F)F)cc1S(C)(=O)=O` [pyrasulfotole], the Efficacy (Bromus sterilis (BROST); [16]) was 0%, the Efficacy (Bromus sterilis (BROST); [17]) was 0% and the Efficacy [3, 16] was 50%. The Efficacy [3, 18] was 60%, the Efficacy [3, 19] was 0% and the Efficacy [3, 20] was 30%. For the same compound, the Efficacy [3, 21] was 0%, the Efficacy [3, 17] was 30% and the Efficacy (Galium aparine (GALAP); [19]) was 40%. For the same compound, the Efficacy (Galium aparine (GALAP); [21]) was 40%, the Efficacy [1, 16] was 0% and the Efficacy [1, 18] was 0%. It also gave an Efficacy [2, 16] of 0%, an Efficacy [2, 18] of 15% and an Efficacy [2, 20] of 3%. For the same compound, the Efficacy (Phalaris minor (PHAMI); [16]) was 0%, the Efficacy (Phalaris minor (PHAMI); [18]) was 5% and the Efficacy (Phalaris minor (PHAMI); [19]) was 0%. It also gave an Efficacy (Phalaris minor (PHAMI); [20]) of 0%, an Efficacy (Poa annua (POAAN); [16]) of 0% and an Efficacy (Poa annua (POAAN); [18]) of 0%. It also gave an Efficacy (Poa annua (POAAN); [19]) of 0% and an Efficacy (Poa annua (POAAN); [20]) of 0%.
`CC(C)N(C)S(=O)(=O)NC(=O)c1cc(-n2c(=O)cc(C(F)(F)F)n(C)c2=O)c(F)cc1Cl` [saflufenacil] showed an Efficacy (Bromus sterilis (BROST); [22]) of 5%, an Efficacy [3, 23] of 0% and an Efficacy [3, 24] of 10%. For the same compound, the Efficacy ([3]; 14 days after application, g of a.i./ha: A1-7 10, saflufenacil 2) was 0%, the Efficacy ([3]; 14 days after application, g of a.i./ha: A1-7 10, saflufenacil 8) was 10% and the Efficacy ([3]; 21 days after application, g of a.i./ha: A1-7 2.5, saflufenacil 2) was 0%. It also gave an Efficacy ([3]; 21 days after application, g of a.i./ha: A1-7 2.5, saflufenacil 8) of 0%, an Efficacy ([3]; 21 days after application, g of a.i./ha: A1-7 10, saflufenacil 2) of 0% and an Efficacy [3, 22] of 0%. For the same compound, the Efficacy [1, 23] was 0%, the Efficacy [1, 24] was 10% and the Efficacy (Avena fatua (AVEFA); [23]) was 0%.
